The term IC50 denotes the midpoint of a concentration-inhibition curve. For orientation: Cmax means the highest concentration seen after dosing. Usually bioavailability stands for the share of a dose that reaches the circulation, judged against a reference dose that is usually intravenous. One may read the half-life as the time needed for the level to fall by half in the phase considered.

Data set [1] has as its target T1, Glycogen phosphorylase, liver form (Homo sapiens, UniProt P06737).
T1 sequence (P06737 whole entry): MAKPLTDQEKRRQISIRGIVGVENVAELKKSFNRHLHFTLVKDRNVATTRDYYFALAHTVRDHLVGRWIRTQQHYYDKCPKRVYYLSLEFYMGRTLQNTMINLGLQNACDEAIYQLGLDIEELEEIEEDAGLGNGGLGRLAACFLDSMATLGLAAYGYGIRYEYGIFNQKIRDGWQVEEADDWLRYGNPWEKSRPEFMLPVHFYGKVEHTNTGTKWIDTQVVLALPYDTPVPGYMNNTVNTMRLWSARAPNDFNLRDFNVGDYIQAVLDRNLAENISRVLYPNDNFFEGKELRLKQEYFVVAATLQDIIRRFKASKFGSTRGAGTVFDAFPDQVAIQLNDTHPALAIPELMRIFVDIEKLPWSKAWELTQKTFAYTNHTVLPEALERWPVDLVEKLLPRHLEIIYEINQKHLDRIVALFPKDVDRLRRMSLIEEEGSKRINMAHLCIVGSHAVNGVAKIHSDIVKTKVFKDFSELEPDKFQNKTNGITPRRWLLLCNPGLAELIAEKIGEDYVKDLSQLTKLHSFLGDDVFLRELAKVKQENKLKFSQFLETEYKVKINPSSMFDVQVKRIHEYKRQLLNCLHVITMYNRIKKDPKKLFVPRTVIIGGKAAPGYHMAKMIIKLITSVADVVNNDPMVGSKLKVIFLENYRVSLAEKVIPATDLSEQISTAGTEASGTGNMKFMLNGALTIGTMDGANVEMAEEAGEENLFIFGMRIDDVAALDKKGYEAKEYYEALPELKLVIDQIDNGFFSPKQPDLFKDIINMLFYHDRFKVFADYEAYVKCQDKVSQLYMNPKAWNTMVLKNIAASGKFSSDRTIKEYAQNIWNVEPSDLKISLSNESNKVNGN
Description: Inhibition of human glycogen phosphorylase a in HepG2 cells assessed as inhibition of forskolin-stimulated glycogenolysis. The data set is classed as cell-based.

The test system of data set [2] is Mus musculus. Briefly: Antidiabetic effect in ob/ob B6.V-lep[ob]/J mouse assessed as decrease in blood glucose level at 15 mg/kg, po after 3 hrs. The format is functional.
Data set [3] can be described thus: Cmax in rat at 5 mg/kg, po. The data set is classed as ADME, organism-based. Set-up: dose 5 mg/kg, route oral. The note with it: in vivo.
Data set [4] has as its system Rattus norvegicus. Description: Reduction of glucagon-induced glucose AUC in CD rat at 2 mg/kg, po preincubated for 2 hrs before glucagon challenge. The format is functional. Set-up: scale not given: the % may be the effect or the level left.
Data set [5] in a line: Bioavailability in rat at 1 mg/kg, iv and 5 mg/kg, po. The data set is classed as ADME, organism-based. The note with it: in vivo.
Data set [6] can be described thus: Clearance in rat at 1 mg/kg, iv and 5 mg/kg, po. The data set is classed as ADME, organism-based. The note with it: in vivo.
A short description of data set [7]: Half life in rat at 1 mg/kg, iv and 5 mg/kg, po. The data set is classed as ADME, organism-based. The note with it: in vivo.
The test system of data set [8] is Rattus norvegicus. Description: Reduction of glucagon-induced glucose AUC in CD rat at 5 mg/kg, po preincubated for 2 hrs before glucagon challenge. The format is functional. Set-up: scale not given: the % may be the effect or the level left.
In data set [9] the target is T1, Glycogen phosphorylase, liver form. Briefly: Inhibition of human liver glycogen phosphorylase a by coupled kinetic fluorescent intensity assay.

For `CCCc1cc(C)c(NC(=O)Nc2cc(-c3ccc(OC)cc3)ccc2C(=O)N[C@H](C(=O)O)[C@@H](C)OC(C)(C)C)c(C)c1`, the IC50 in data set [1] came out at 135 nM.
As for `Cc1cc(CC2CC2)cc(C)c1NC(=O)Nc1cc(-c2cccc(F)c2)ccc1C(=O)N[C@H](C(=O)O)[C@@H](C)OC(C)(C)C`, the values for the Activity in data set [2], in data set [4] and in data set [8] were 103 mg/dL, 62% and 65%, respectively. The Cmax in data set [3] came out at 536 ng/mL. Besides, in [5], the bioavailability came out at 27%. Besides, in [1], the IC50 was 145 nM. Besides, the clearance in data set [6] is 15 mL/min/kg. Also, the half-life in data set [7] was 2.3 h.
With `Cc1cc(CC2CC2)cc(C)c1NC(=O)Nc1cc(F)ccc1C(=O)N[C@H](C(=O)O)C1CCCCC1`, the IC50 was 13 nM in data set [9] and 384 nM in data set [1].
For `CCCc1cc(C)c(NC(=O)Nc2cc(F)ccc2C(=O)N[C@H](C(=O)O)C2CCCCC2)c(C)c1`, the IC50 in [9] was determined as 19 nM; in [1] it was 229 nM.
The like results for `CCCc1cc(C)c(NC(=O)Nc2cc(-c3cccc(F)c3)ccc2C(=O)N[C@H](C(=O)O)[C@@H](C)OC(C)(C)C)c(C)c1` were, in that order, 4 nM and 156 nM.
The like results for `CCc1cc(C)c(NC(=O)Nc2cc(F)ccc2C(=O)N[C@H](C(=O)O)C2CCCCC2)c(C)c1` were, in that order, 87 nM and 513 nM.
The like results for `COc1cccc(-c2ccc(C(=O)N[C@H](C(=O)O)[C@@H](C)OC(C)(C)C)c(NC(=O)Nc3c(C)cc(C)cc3C)c2)c1` were, in that order, 8 nM and 109 nM.
In the case of `Cc1cc(C)c(NC(=O)Nc2cc(-c3ccc(F)c(F)c3)ccc2C(=O)N[C@H](C(=O)O)[C@@H](C)OC(C)(C)C)c(C)c1`, the figures for the 50% inhibitory concentration (IC50) in data set [9] and in [1] were 13 nM and 171 nM, respectively.
The like results for `COc1ccccc1-c1ccc(C(=O)N[C@H](C(=O)O)[C@@H](C)OC(C)(C)C)c(NC(=O)Nc2c(C)cc(C)cc2C)c1` were, in that order, 28 nM and 353 nM.
Taken in the same sequence, the figures for `COc1ccc(-c2ccc(C(=O)N[C@H](C(=O)O)[C@@H](C)OC(C)(C)C)c(NC(=O)Nc3c(C)cc(C)cc3C)c2)cc1` were 3 nM and 34 nM.
The like results for `CCCc1cc(C)c(NC(=O)Nc2cc(-c3ccc(F)c(F)c3)ccc2C(=O)N[C@H](C(=O)O)[C@@H](C)OC(C)(C)C)c(C)c1` were, in that order, 7 nM and 181 nM.
Regarding `CCCc1cc(C)c(NC(=O)Nc2cc(F)ccc2C(=O)N[C@H](C(=O)O)[C@@H](C)OC(C)(C)C)c(C)c1`, the IC50 is 10 nM in data set [9] and 147 nM in data set [1].
With `Cc1cc(C)c(NC(=O)Nc2cc(F)ccc2C(=O)N[C@H](C(=O)O)C2CCCCC2)c(C)c1`, the half-maximal inhibitory concentration (IC50) in [9] worked out at 143 nM; in data set [1], 1030 nM.
The like results for `Cc1cc(C)c(NC(=O)Nc2cc(-c3ccccc3)ccc2C(=O)N[C@H](C(=O)O)[C@@H](C)OC(C)(C)C)c(C)c1` were, in that order, 10 nM and 126 nM.
`Cc1cc(C)c(NC(=O)Nc2cc3ccccc3cc2C(=O)N[C@H](C(=O)O)[C@@H](C)OC(C)(C)C)c(C)c1` had an Activity in [8] of 25%.
On to `Cc1cc(C)c(NC(=O)Nc2ccccc2C(=O)N[C@H](C(=O)O)[C@@H](C)OC(C)(C)C)c(C)c1`, for which the IC50 was 542 nM in data set [9] and 1680 nM in data set [1].
The like results for `Cc1cccc(C)c1NC(=O)Nc1cc(F)ccc1C(=O)N[C@H](C(=O)O)C1CCCCC1` were, in that order, 1070 nM and 8260 nM.
For `Cc1cc(CC2CC2)cc(C)c1NC(=O)Nc1cc(F)ccc1C(=O)N[C@H](C(=O)O)[C@@H](C)OC(C)(C)C`, the Activity in data set [4] was determined as 22%; in data set [8] it was 36%. Moreover, the concentration for half-maximal inhibition (IC50) came to 4 nM in data set [9] and 133 nM in data set [1].
Turning to `Cc1cc(C)c(NC(=O)Nc2cc(F)ccc2C(=O)N[C@H](C(=O)O)[C@@H](C)OC(C)(C)C)c(C)c1`, the concentration for half-maximal inhibition (IC50) was 506 nM in data set [9] and 1820 nM in data set [1].
On to `Cc1cc(C)c(NC(=O)Nc2cc(-c3cccc(F)c3)ccc2C(=O)N[C@H](C(=O)O)[C@@H](C)OC(C)(C)C)c(C)c1`, for which the Activity in data set [4] worked out at 10%; in [8], 32%. The concentration for half-maximal inhibition (IC50) in [9] is 15 nM; in data set [1] it was 104 nM.
With `CCCCc1cc(C)c(NC(=O)Nc2cc(F)ccc2C(=O)N[C@H](C(=O)O)C2CCCCC2)c(C)c1`, the concentration for half-maximal inhibition (IC50) in [9] was determined as 49 nM; in data set [1] it was 716 nM.
Taken in the same sequence, the figures for `Cc1cc(C)c(NC(=O)Nc2cc(-c3ccc(F)cc3)ccc2C(=O)N[C@H](C(=O)O)[C@@H](C)OC(C)(C)C)c(C)c1` were 7 nM and 88 nM.

The values above are taken from ChEMBL document CHEMBL1136849, “Anthranilimide based glycogen phosphorylase inhibitors for the treatment of type 2 diabetes. Part 3: X-ray crystallographic characterization, core and urea optimization and in vivo efficacy” (Bioorg Med Chem Lett, 2009).
